Source: patent US20030144148A1, “Method for plant-protection treatment by leaf absorption, using a combination between an active ingredient and a modified oil and novel combination for using said method” (SOCIETE D'EXPLOITATION DE PRODUITS POUR LES INDUSTRIES …, priority 1998, published 2003)

Columns and labels:
[1] = test system: barley (Hordeum vulgare) leaves; experiment: Leaf penetration of 2,4-D, alone or in combination with modified oils; assay type: in vivo; details: percentage of 2,4-D penetrated into barley leaf
Protocol: (§1) Ten drops are applied to the adaxial surface of the first leaf. After 0, 4, 6, 24 or 72 hours, the product which has not penetrated is washed with 0.5 ml of acetone and the radioactivity measured by liquid scintillation. The radioactivity present in the treated leaf in the rest of the plant is determined in the carbon dioxide obtained after burning the tissue.
The penetration into barley (Hordeum vulgare) leaves, of 2,4-D or (2,4-dichlorophenoxy) acetic acid, which is a herbicide with a highly dissociated carboxylic acid function, alone or in combination with modified oils, was compared according to the procedure described in the preceding paragraph.

[2] = test system: barley (Hordeum vulgare) leaves; experiment: Leaf penetration of carbon-14 labeled phenmedipham, alone or in combination with modified oils; assay type: in vivo; design: dose or concentration left out as unconfirmed; details: percentage of phenmedipham penetrated into barley leaf, 72 hours after application in acetone
Protocol: as §1

Structure (SMILES) | LEAF PENETRATION AT: 24 HOURS ([1]; 24 hours after application) [%] | LEAF PENETRATION AT: 72 HOURS ([1]; 72 hours after application) [%] | LEAF PENETRATION AT: 72 HOURS [2] [%]
O=C(O)COc1ccc(Cl)cc1Cl [2,4-D ALONE, (2,4-dichlorophenoxy) acetic acid] | 10 | 15 | 
COC(=O)Nc1cccc(OC(=O)Nc2cccc(C)c2)c1 [PH[…], 3-[(methoxycarbonyl)amino] phenyl (3-methylphenyl)-carbamate] |  |  | <10
